Experiments:
Assay type in all cases: cell-based
[1] = molecular target: T1, 17-beta-hydroxysteroid dehydrogenase type 2 (Homo sapiens) (UniProt P37059); assay: Inhibition of recombinant human 17beta-HSD2 expressed in HEK293 cells assessed as residual activity at 20 uM using estradiol as substrate after 10 mins in presence of radiolabeled tracer substrate by scintillation counting method relative to control
T1 sequence (whole entry): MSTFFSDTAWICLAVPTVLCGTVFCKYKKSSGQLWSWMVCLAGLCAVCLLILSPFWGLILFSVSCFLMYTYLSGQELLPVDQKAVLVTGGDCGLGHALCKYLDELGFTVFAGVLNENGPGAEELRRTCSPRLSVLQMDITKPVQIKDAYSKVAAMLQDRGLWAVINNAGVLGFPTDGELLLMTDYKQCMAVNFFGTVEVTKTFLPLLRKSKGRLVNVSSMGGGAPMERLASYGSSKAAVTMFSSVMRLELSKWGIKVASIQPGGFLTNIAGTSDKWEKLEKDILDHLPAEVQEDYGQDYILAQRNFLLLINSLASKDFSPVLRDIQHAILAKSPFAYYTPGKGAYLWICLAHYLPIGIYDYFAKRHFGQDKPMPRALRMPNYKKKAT

[2] = molecular target: T2, 17-beta-hydroxysteroid dehydrogenase type 2 (Homo sapiens, UniProt P37059); assay: Inhibition of recombinant human 17beta-HSD2 expressed in HEK293 cells using estradiol as substrate after 10 mins in presence of radiolabeled tracer substrate by scintillation counting method
T2 sequence (P37059 whole entry): T1 sequence (whole entry)

[3] = molecular target: T3, 17-beta-hydroxysteroid dehydrogenase type 1 (Homo sapiens) (UniProt P14061); assay: Inhibition of recombinant human 17beta-HSD1 expressed in HEK293 cells assessed as residual activity at 20 uM using estrone as substrate after 10 mins in presence of radiolabeled tracer substrate by scintillation counting method relative to control
T3 sequence (whole entry): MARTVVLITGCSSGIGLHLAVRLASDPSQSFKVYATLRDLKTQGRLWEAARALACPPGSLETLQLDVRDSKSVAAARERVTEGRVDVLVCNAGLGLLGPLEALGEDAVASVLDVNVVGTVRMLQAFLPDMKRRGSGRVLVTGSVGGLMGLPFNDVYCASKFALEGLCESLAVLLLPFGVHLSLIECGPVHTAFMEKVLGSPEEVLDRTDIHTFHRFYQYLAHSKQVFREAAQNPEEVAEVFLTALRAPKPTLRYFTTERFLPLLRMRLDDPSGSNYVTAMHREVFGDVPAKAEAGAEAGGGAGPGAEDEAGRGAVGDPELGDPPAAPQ

[4] = molecular target: 11-beta-hydroxysteroid dehydrogenase 1 (Homo sapiens) (UniProt P28845); assay: Inhibition of recombinant human 11beta-HSD1 expressed in HEK293 cells assessed as residual activity at 20 uM using cortisone as substrate after 10 mins in presence of radiolabeled tracer substrate by scintillation counting method relative to control
[5] = molecular target: T4, 11beta-HSD2 (11-beta-hydroxysteroid dehydrogenase type 2) (Homo sapiens, UniProt P80365); assay: Inhibition of recombinant human 11beta-HSD2 expressed in HEK293 cells assessed as residual activity at 20 uM using cortisol as substrate after 10 mins in presence of radiolabeled tracer substrate by scintillation counting method relative to control; details: HEK293 cells expressing recombinant human 11beta-HSD2, probe cortisol, read-out: Activity
T4 sequence (P80365 whole entry): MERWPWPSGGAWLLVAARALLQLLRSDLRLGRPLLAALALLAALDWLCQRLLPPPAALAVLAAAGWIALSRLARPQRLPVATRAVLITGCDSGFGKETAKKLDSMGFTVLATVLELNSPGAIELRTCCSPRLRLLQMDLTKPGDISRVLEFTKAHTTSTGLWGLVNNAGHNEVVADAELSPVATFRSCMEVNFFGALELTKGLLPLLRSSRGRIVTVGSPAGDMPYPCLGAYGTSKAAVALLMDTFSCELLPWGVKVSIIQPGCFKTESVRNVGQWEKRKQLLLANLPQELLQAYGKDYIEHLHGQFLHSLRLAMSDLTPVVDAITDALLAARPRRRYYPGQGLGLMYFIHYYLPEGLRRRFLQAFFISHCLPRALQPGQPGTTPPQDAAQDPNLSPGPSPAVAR

Homo sapiens [6] = species: Homo sapiens; assay: Selectivity index, ratio of compound effect for inhibition of recombinant human 17beta-HSD1 expressed in HEK293 cells assessed as residual activity to compound effect for inhibition of 17beta-HSD2 expressed in HEK293 cells assessed as residual activity
Homo sapiens [7] = species: Homo sapiens; assay: Selectivity index, ratio of compound effect for inhibition of recombinant human 11beta-HSD1 expressed in HEK293 cells assessed as residual activity to compound effect for inhibition of 17beta-HSD2 expressed in HEK293 cells assessed as residual activity
Homo sapiens [8] = species: Homo sapiens; assay: Selectivity index, ratio of compound effect for inhibition of recombinant human 11beta-HSD2 expressed in HEK293 cells assessed as residual activity to compound effect for inhibition of 17beta-HSD2 expressed in HEK293 cells assessed as residual activity

Chain of 11-beta-hydroxysteroid dehydrogenase 1 (Homo sapiens) (P28845 whole entry, looked up): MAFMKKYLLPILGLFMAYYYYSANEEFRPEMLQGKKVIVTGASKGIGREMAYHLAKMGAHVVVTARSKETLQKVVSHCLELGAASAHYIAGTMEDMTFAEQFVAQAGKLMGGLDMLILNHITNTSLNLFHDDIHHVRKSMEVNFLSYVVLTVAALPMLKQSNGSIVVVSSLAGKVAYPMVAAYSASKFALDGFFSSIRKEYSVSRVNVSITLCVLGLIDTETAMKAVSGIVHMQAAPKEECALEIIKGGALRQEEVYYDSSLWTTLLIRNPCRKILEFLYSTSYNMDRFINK

Activity [1] | IC50 [2] | Activity [3] | Activity [4] | activity at 10 min, 20 µM [5] | Compound | Selectivity Index (Homo sapiens [6]) | Selectivity Index (Homo sapiens [7]) | Selectivity Index (Homo sapiens [8])
44% | – | – | – | – | CC(C)(C)c1ccc(S(=O)(=O)Oc2ccc(Cl)cc2N)cc1 | – | – | –
13% | 4.09 µM | 38% | 46% | 63% | Cc1ccc(O)c(NS(=O)(=O)c2ccc(C(C)(C)C)cc2)c1 | 2.9 | 3.5 | 4.8
18% | 5.19 µM | 19% | 43% | 37% | Cc1cc(C)c(O)c(NS(=O)(=O)c2ccc(C(C)(C)C)cc2)c1 | 1.1 | 2.4 | 2.1
6% | 0.8 µM | 15% | 35% | 7% | CC(C)(C)c1ccc(S(=O)(=O)Nc2cc(Cl)ccc2O)cc1 | 2.5 | 5.8 | 1.2
37% | – | – | – | – | Cc1ccc(OS(=O)(=O)c2ccc(C(C)(C)C)cc2)c(N)c1 | – | – | –
43% | – | – | – | – | CC(C)(C)c1ccc(S(=O)(=O)Oc2ccc3ccccc3c2N)cc1 | – | – | –
22 to 28% | 5.58 µM | 46% | 28% | 75% | CC(C)(C)c1ccc(S(=O)(=O)Nc2cc(Cl)ccc2N)cc1 | 2.1 | 1.3 | 3.4
46% | – | – | – | – | CC(C)(C)c1ccc(S(=O)(=O)Nc2ccccc2N)cc1 | – | – | –
7% | 2.9 µM | 46% | 21% | 21% | CC(C)(C)c1ccc(S(=O)(=O)Nc2c(O)ccc3ccccc23)cc1 | 8.6 | 3 | 3
36% | – | – | – | – | Cc1ccc(N)c(OS(=O)(=O)c2ccc(C(C)(C)C)cc2)c1 | – | – | –
33% | – | – | – | – | CC(C)(C)c1ccc(S(=O)(=O)Oc2ccccc2N)cc1 | – | – | –
5% | 1.23 µM | 41% | 37% | 83% | CC(C)(C)c1ccc(S(=O)(=O)Nc2ccccc2O)cc1 | 8.2 | 7.4 | 16.6
– | – | 11% | – | – | O=c1cc(-c2ccc(O)cc2)oc2cc(O)cc(O)c12 | – | – | –
36% | – | 56% | 26% | 97% | CC(C)(C)c1ccc(S(=O)(=O)Nc2ccc(F)cc2N)cc1 | 1.6 | 0.7 | 2.7
86% | – | – | – | – | CC(C)(C)c1ccc(S(=O)(=O)Oc2ccc(-c3ccccc3)cc2N)cc1 | – | – | –
11% | 4.65 µM | 23% | 74% | 21% | CC(C)(C)c1ccc(S(=O)(=O)Nc2cc(Cl)c(Cl)cc2N)cc1 | 2.1 | 6.7 | 1.9
49% | – | – | – | – | Cc1cc(C)c(OS(=O)(=O)c2ccc(C(C)(C)C)cc2)c(N)c1 | – | – | –
2% | 1.25 µM | 13% | 62% | 3% | CC(C)(C)c1ccc(S(=O)(=O)Nc2cc(-c3ccccc3)ccc2O)cc1 | 6.5 | 31 | 1.5
22% | 4.4 µM | 35% | 24% | 62% | Cc1ccc(NS(=O)(=O)c2ccc(C(C)(C)C)cc2)c(O)c1 | 1.6 | 1.1 | 2.8
10% | – | – | – | – | Cc1cc(S(=O)(=O)Nc2cccc(O)c2)c(C)cc1Cl | – | – | –
35% | – | – | – | – | CC(C)(C)c1ccc(S(=O)(=O)Nc2ccc(Cl)cc2N)cc1 | – | – | –
58% | – | – | – | – | Cc1cc(N)c(NS(=O)(=O)c2ccc(C(C)(C)C)cc2)cc1C | – | – | –

— ChEMBL document CHEMBL4033686, “Phenylbenzenesulfonates and -sulfonamides as 17β-hydroxysteroid dehydrogenase type 2 inhibitors: Synthesis and SAR-analysis” (Bioorg Med Chem Lett, 2017)
